From patent US20110287110A1, “COMBINATION CANCER TREATMENT” (priority 2010, published 2011)

Experiments:
[1] = tested on: bladder cancer cell lines (5637, J82, RT4, MB49, MBT2, NBT2); experiment: Clonogenic survival assay, sensitivity to cisplatin in bladder cancer cell lines; format: cell-based, human and rodent; conditions: cells expressing higher basal levels of Ctr1 (5637 and MBT2) vs other lines; cisplatin 1, 5, 10, or 50 μM for 2 hours; FIG. 1
Procedure: Bladder cell lines (5637, J82, RT4, MB49, MBT2, and NBT2) were kindly provided by Brant A. Inman, MD. J82, NBT2, MB49, and MBT2 cells were cultured in Dulbecco's modified Eagle's medium (DMEM) containing 10% fetal bovine serum (FBS) and 1% antibiotic-antimycotic (AA; Invitrogen). RT4 and 5637 cells were cultured in McCoy's 5A modified medium and RPMI-1640 medium, respectively, containing 10% FBS and 1% AA. The WT and Ctr1−/− MEF cell lines as well as the Ctr1 antibody were kindly provided by Dennis J. Thiele, PhD. MEF cells were cultured in DMEM containing 20% FBS, 1% L-Glutamine-Penicillin-Streptomycin (Sigma), 1% sodium pyruvate, 1% nonessential amino acids, 0.5 mg/L uridine (Sigma), and 55 μM 2-mercaptoethanol. […]
Basal Ctr1 protein expression was assessed using Western blot in several different human (5637, J82, and RT4) and rodent (MB49, MBT2, and NBT2) bladder cancer cell lines. […] Samples were centrifuged at 12,000 rpm, and 100 μg of protein was separated using 4-20% SDS-PAGE, transferred to PVDF membrane and detected by chemiluminescence using anti-Ctr1 antibody (1:1000; kindly provided by Dennis J. Thiele, PhD) followed by anti-rabbit HRP antibody (1:2000; Bio-Rad). Sensitivity to cisplatin was assessed using a clonogenic survival assay. […] Cells were incubated until colonies (50+ cells) were detected (7-14 days). Colonies were then stained using crystal violet and counted.

[2] = tested on: WT and Ctr1−/− mouse embryonic fibroblasts (MEFs); experiment: Clonogenic survival assay, sensitivity to cisplatin in WT and Ctr1−/− MEFs; format: cell-based; conditions: cisplatin 1, 5, or 10 μM for 2 hours, FIG. 2
Procedure: (§1) Bladder cell lines (5637, J82, RT4, MB49, MBT2, and NBT2) were kindly provided by Brant A. Inman, MD. J82, NBT2, MB49, and MBT2 cells were cultured in Dulbecco's modified Eagle's medium (DMEM) containing 10% fetal bovine serum (FBS) and 1% antibiotic-antimycotic (AA; Invitrogen). RT4 and 5637 cells were cultured in McCoy's 5A modified medium and RPMI-1640 medium, respectively, containing 10% FBS and 1% AA. The WT and Ctr1−/− MEF cell lines as well as the Ctr1 antibody were kindly provided by Dennis J. Thiele, PhD. MEF cells were cultured in DMEM containing 20% FBS, 1% L-Glutamine-Penicillin-Streptomycin (Sigma), 1% sodium pyruvate, 1% nonessential amino acids, 0.5 mg/L uridine (Sigma), and 55 μM 2-mercaptoethanol. All cells were maintained at 37° C. and at 5% CO2.
Basal Ctr1 protein expression was assessed using western blot in WT and Ctr1−/− mouse embryonic fibroblasts (MEFs). Sensitivity to cisplatin was assessed using a clonogenic survival assay. Briefly, a known density of cells was plated in 6-well plates. Approximately 18-24 hours after plating, cells were exposed to cisplatin (1, 5, or 10 μM; APP Pharmaceuticals; 50 mg/50 mL) or saline for 2 hours. […] Cells were incubated until colonies (50+ cells) were detected (7-14 days). Colonies were then stained using crystal violet and counted.

WT and Ctr1−/− MEFs [3] = experiment: Cisplatin uptake/accumulation (intracellular platinum by ICP-AES) in MEFs; format: cell-based, mouse; conditions: cisplatin 100 μg/mL
Procedure: as §1
WT and Ctr1−/− MEFs were plated into T175 flasks and treated with concurrent hyperthermia (42° C.) or normothermia (37° C.) and cisplatin (100 μg/mL; APP Pharmaceuticals; 50 mg/50 mL) for 1 hour. Following this 1 hour incubation, cells were incubated with cisplatin for an additional hour at 37° C. Cells were then washed twice with PBS and harvested into 1 mL of 3N HCl and 10% TCA. Samples were digested at 70° C. for 18 hours and centrifuged at 20,800×g for 5 minutes. The supernatants were collected, and intracellular platinum accumulation was measured using inductively coupled plasma atomic emission spectroscopy (ICP-AES) at the EPA, Chapel Hill, N.C.

WT and Ctr1−/− MEFs [4] = experiment: Platinum-DNA adduct formation (immunofluorescence) in MEFs; format: cell-based, mouse; conditions: WT compared to Ctr1−/− cells, particularly following hyperthermia; 50 μg/mL cisplatin; FIG. 4
Procedure: as §1
WT and Ctr1−/− MEFs were plated on coverslips (80,000-90,000 cells) in 6-well plates. Approximately 24-48 hours after plating, cells were treated with or without concurrent mild hyperthermia (42° C.) or normothermia (37° C.) and 50 μg/mL cisplatin (APP Pharmaceuticals; 50 mg/50 mL) for 1 hour. Following this initial 1 hour treatment, cells were incubated for 3 additional hours at 37° C. Following treatment, platinum-DNA adducts were stained using immunofluorescence. […] Cells were imaged using a Zeiss Axio Imager widefield fluorescence microscope (Carl Zeiss MicroImaging).

Ctr1 = conditions: cells with Ctr1 deleted; Ishida et al. 2002, Larson et al. 2009; cited from earlier work

Structure (SMILES): N.N.[Cl][Pt][Cl] [cisplatin, cis-diamminedichloroplatinum (II)]
- Sensitivity to cisplatin (clonogenic survival) [1]: more sensitive
- Sensitivity to cisplatin (clonogenic survival) ([2]; Ctr1−/− MEFs (do not express Ctr1)): more resistant
- Sensitivity to cisplatin (clonogenic survival) ([2]; WT MEFs (higher basal Ctr1)): more sensitive
- Further increase in platinum uptake after hyperthermia (WT and Ctr1−/− MEFs [3]; Ctr1−/− cells, hyperthermia 42° C. vs normothermia 37° C.): not observed
- Platinum levels (intracellular platinum accumulation) (WT and Ctr1−/− MEFs [3]; WT cells compared to Ctr1−/− cells, with and without hyperthermia (42° C.), FIG. 3): Higher platinum levels
- Platinum uptake after hyperthermia (WT and Ctr1−/− MEFs [3]; WT cells, hyperthermia 42° C. vs normothermia 37° C.): further increase
- Percentages of adduct-positive cells and adduct formation (WT and Ctr1−/− MEFs [4]): Higher
- Cisplatin resistance (Ctr1): increased
- Cisplatin uptake (Ctr1): decreased
